# Source: the Kinase Knowledgebase extract (Sharma et al. 2016)
# pIC50: −log10 of the molar value.
# Key:
# EGFR (human) [1] = target: EGFR (human) (UniProt P00533)
# EGFR (human) [2] = target: EGFR (human) (UniProt P00533); conditions: a431
# Sequence of EGFR (human) (P00533 whole entry, looked up): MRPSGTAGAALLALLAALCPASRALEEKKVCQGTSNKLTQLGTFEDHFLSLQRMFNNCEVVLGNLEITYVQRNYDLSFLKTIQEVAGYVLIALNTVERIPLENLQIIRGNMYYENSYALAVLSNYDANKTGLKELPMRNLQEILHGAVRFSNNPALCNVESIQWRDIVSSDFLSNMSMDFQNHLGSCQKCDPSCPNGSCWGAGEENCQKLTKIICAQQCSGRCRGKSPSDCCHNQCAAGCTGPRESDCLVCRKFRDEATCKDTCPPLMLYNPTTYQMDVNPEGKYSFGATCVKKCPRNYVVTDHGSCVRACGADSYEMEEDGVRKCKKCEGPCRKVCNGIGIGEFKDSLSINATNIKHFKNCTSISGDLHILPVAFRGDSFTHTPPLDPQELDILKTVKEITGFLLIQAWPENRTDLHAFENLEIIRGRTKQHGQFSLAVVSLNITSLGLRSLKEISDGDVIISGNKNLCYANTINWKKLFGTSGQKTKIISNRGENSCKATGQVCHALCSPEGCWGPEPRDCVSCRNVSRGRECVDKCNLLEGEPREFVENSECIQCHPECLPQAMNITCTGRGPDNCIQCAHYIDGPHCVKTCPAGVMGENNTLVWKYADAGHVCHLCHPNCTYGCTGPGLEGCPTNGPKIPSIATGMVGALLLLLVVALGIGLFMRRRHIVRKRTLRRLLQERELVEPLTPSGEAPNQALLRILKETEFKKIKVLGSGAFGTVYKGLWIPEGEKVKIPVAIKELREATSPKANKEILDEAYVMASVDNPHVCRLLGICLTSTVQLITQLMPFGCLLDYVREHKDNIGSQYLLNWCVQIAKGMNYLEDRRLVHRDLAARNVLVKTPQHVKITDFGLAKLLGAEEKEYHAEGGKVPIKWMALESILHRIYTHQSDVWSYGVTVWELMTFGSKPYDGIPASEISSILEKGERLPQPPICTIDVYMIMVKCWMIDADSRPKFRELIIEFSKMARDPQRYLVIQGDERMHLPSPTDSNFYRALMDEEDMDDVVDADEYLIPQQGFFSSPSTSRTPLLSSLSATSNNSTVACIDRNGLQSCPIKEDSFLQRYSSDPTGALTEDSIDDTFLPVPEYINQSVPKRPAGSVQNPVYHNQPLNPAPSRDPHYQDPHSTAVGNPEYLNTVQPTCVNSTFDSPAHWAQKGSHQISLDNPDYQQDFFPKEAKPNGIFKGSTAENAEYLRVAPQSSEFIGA
SMILES,pIC50 (EGFR (human) [1]),pIC50 (EGFR (human) [2])
CCN(CC)C[C@H](O)Cn1ccc(-c2ccc3ncnc(Nc4ccc5c(cnn5Cc5cccc(F)c5)c4)c3c2)c1,7.42,6.66
O[C@@H](CN1CCOCC1)Cn1ccc(-c2ccc3ncnc(Nc4ccc(OCc5cccc(F)c5)c(Cl)c4)c3c2)c1,7.51,6.49
O[C@H](CN1CCC[C@@H]1CN1CCCC1)Cn1ccc(-c2ccc3ncnc(Nc4ccc(OCc5cccc(F)c5)c(Cl)c4)c3c2)c1,7.02,6.13
O=S1(=O)CCC(NCCn2ccc(-c3ccc4ncnc(Nc5ccc(OCc6cccc(F)c6)c(Cl)c5)c4c3)c2)CC1,6.31,5.85
Fc1cccc(COc2ccc(Nc3ncnc4ccc(-c5ccc[nH]5)cc34)cc2Cl)c1,8.40,5.97
O=C(Cn1ccc(-c2ccc3ncnc(Nc4ccc(OCc5cccc(F)c5)c(Cl)c4)c3c2)c1)NC1CCS(=O)(=O)CC1,6.85,5.43
O=C(Cn1ccc(-c2ccc3ncnc(Nc4ccc(OCc5cccc(F)c5)c(Cl)c4)c3c2)c1)N1CCC(N2CCCC2)CC1,6.97,6.62
CS(=O)(=O)CCOCC(O)Cn1ccc(-c2ccc3ncnc(Nc4ccc(OCc5cccc(F)c5)c(Cl)c4)c3c2)c1 (stereo unspecified),7.42,6.21
CS(=O)(=O)CCNCc1ccc(-c2ccc3ncnc(Nc4ccc(OCc5cccc(F)c5)c(Cl)c4)c3c2)[nH]1,8.59,6.92
Fc1cccc(COc2ccc(Nc3ncnc4ccc(-c5ccn(CCN6CCCCCC6)c5)cc34)cc2Cl)c1,7.57,6.18
CS(=O)(=O)CCNCc1ccn(-c2ccc3ncnc(Nc4ccc(OCc5cccc(F)c5)c(Cl)c4)c3c2)c1,7.30,6.11
O=C(Cn1ccc(-c2ccc3ncnc(Nc4ccc(OCc5cccc(F)c5)c(Cl)c4)c3c2)c1)NCC1(O)CCS(=O)(=O)CC1,7.77,5.81
Fc1cccc(COc2ccc(Nc3ncnc4ccc(-c5ccn(CCNC6CC6)c5)cc34)cc2Cl)c1,6.62,6.13
OC(CN1CCN(CC2CC2)CC1)Cn1ccc(-c2ccc3ncnc(Nc4ccc(OCc5cccc(F)c5)c(Cl)c4)c3c2)c1 (stereo unspecified),7.10,6.39
OCCc1cn(-c2ccc3ncnc(Nc4ccc(OCc5cccc(F)c5)c(Cl)c4)c3c2)cc1CN1CCCC1,8.15,6.41
O=C(c1cn(-c2ccc3ncnc(Nc4ccc(OCc5cccc(F)c5)c(Cl)c4)c3c2)cc1CCO)N1CCCC1,7.82,7.05
OCCc1cn(-c2ccc3ncnc(Nc4ccc(OCc5cccc(F)c5)c(Cl)c4)c3c2)cc1CN1CCCCC1,7.27,6.66

SMILES,pIC50 (EGFR (human) [1]),pIC50 (EGFR (human) [2])
O[C@@H](CN1CCOCC1)Cn1ccc(-c2ccc3ncnc(Nc4ccc5c(cnn5Cc5cccc(F)c5)c4)c3c2)c1,8.10,6.13
Fc1cccc(COc2ccc(Nc3ncnc4ccc(-c5ccn(CCN6CCCC6)c5)cc34)cc2Cl)c1,8.40,7.40
O=C(c1cn(-c2ccc3ncnc(Nc4ccc(OCc5cccc(F)c5)c(Cl)c4)c3c2)cc1CCO)N1CCOCC1,8.10,6.80
OC(CN1CCN(Cc2ccncc2)CC1)Cn1ccc(-c2ccc3ncnc(Nc4ccc5c(cnn5Cc5cccc(F)c5)c4)c3c2)c1 (stereo unspecified),6.22,5.38
Fc1cccc(COc2ccc(Nc3ncnc4ccc(-c5ccn(CCCN6CCN(c7cccc(Cl)c7)CC6)c5)cc34)cc2Cl)c1,7.49,6.54
CN1CCN(CCNC(=O)c2cn(-c3ccc4ncnc(Nc5ccc(OCc6ccccn6)c(Cl)c5)c4c3)cc2CCO)CC1,6.97,6.92
CN1CCN(CCn2ccc(-c3ccc4ncnc(Nc5ccc(OCc6cccc(F)c6)c(Cl)c5)c4c3)c2)CC1,7.77,5.75
Fc1cccc(COc2ccc(Nc3ncnc4ccc(-n5cc(CNCCCN6CCOCC6)c(C(F)(F)F)c5)cc34)cc2Cl)c1,7.37,6.51
Fc1cccc(Cn2ncc3cc(Nc4ncnc5ccc(-n6cccc6)cc45)ccc32)c1,8.22,7.10
O=C(NCC1CCS(=O)(=O)CC1)c1cc(-c2ccc3ncnc(Nc4ccc(OCc5cccc(F)c5)c(Cl)c4)c3c2)c[nH]1,6.94,6.15
O=C1OCCc2cn(-c3ccc4ncnc(Nc5ccc(OCc6cccc(F)c6)c(Cl)c5)c4c3)cc21,8.30,6.24
CN1CCN(CCNCc2cn(-c3ccc4ncnc(Nc5ccc(OCc6cccc(F)c6)c(Cl)c5)c4c3)cc2C(F)(F)F)CC1,7.49,6.80
CN1CCN(CC(O)Cn2ccc(-c3ccc4ncnc(Nc5ccc6c(cnn6Cc6cccc(F)c6)c5)c4c3)c2)CC1 (stereo unspecified),8.70,6.11
O=C(Cn1ccc(-c2ccc3ncnc(Nc4ccc(OCc5cccc(F)c5)c(Cl)c4)c3c2)c1)N1CCN(CCO)CC1,7.29,7.29
OCC(O)Cn1ccc(-c2ccc3ncnc(Nc4ccc(OCc5cccc(F)c5)c(Cl)c4)c3c2)c1 (stereo unspecified),7.57,5.86
CN1CCN(C(=O)Cn2ccc(-c3ccc4ncnc(Nc5ccc(OCc6cccc(F)c6)c(Cl)c5)c4c3)c2)CC1,8.22,6.53
